# Source: US20200308240A1, “Targeting Innate Immune Signaling in Neuroinflammation and Neurodegeneration” (The General Hospital Corporation, priority 2016, published 2020)
# Entries after “also recorded” stand apart in the source; their conditions may differ.
# Columns and labels:
# [1] = tested on: neuronal differentiated ReNcell VM cells; experiment: dsRNA mimetic (PolyIC)-induced neurodegeneration in differentiated ReNVM neurons, cell viability by Celltiter-Glo; assay type: cell-based, human; conditions: for rescue of PolyIC (dsRNA)-induced neurodegeneration / neuronal death: differentiated ReNVM human neurons transfected with PolyIC, FIGS. 4B-N; for viability of ReNVM neurons transfected with PolyIC: escalating doses of poly IC, 48 hours (2 days), relative to mock-transfected neurons, FIG. 3A-F
# Experimental: FIGS. 3A-G. dsRNA induces a Type I interferon response and is sufficient to induced neurodegeneration in human neurons. A-E) Representative transmitted light images of differentiated ReNVM neurons transfected with increasing doses of PolyIC, a dsRNA mimetic, showing a dose-dependent loss of neurons after 48 hours. […] G) Western blots showing the elevated protein expression of type I interferon-stimulated genes in differentiated ReNVM cells 24 hour post transfection with PolyIC, using indicated antibodies.
# FIGS. 4A-N. Inhibitors of key type I interferon regulators rescues PolyIC induced neurodegeneration in ReNVM cells.
# Building on those findings, a novel in vitro human neuronal culture system was developed to recapitulate this pathophysiologic process. These cells can be used, e.g., to identify compounds that modulate dsRNA-mediated neurodegeneration, as a methodology for screening and validation of hits for the novel targets and related targets on the pathway for neurodegeneration and Alzheimer's disease pathogenesis as well as for purposes of drug screening and validation with the primary outcome being loss of neurons. Briefly, a dsRNA-mimetic was introduced into a human neural progenitor immortalized cell line, ReN VM cells, in vitro. There was profound induction of the Type I interferon signaling pathways that were stimulated in mouse models of neurodegeneration including the pattern recognition receptors, PKR and MDA5. Importantly, accelerated neuronal death was also observed over 48 hours that was dependent on the dose of the dsRNA introduced into the cytoplasm. These cell-based phenotypes in human neurons recapitulated and extended findings (described in PCT/US2015/060401) outlining cytoplasmic double-stranded RNA mediated neuronal cell death in multiple transgenic mouse lines (Nd1, Nd2, and Nd3), each expressing a different gene, and a model of induced cytoplasmic dsRNA of GFP causing accelerated neurodegeneration.
# Deploying this cell-based in vitro model of accelerated neurodegeneration of human neurons, a number of inhibitors of Type I interferon signaling pathways were tested.
# To determine if cytoplasmic dsRNA is sufficient to mediate neurodegeneration in human neurons, we transfected neuronal differentiated ReNcell VM cells 27, 28, a human neural cell line derived from ventral mesencephalon, with escalating doses of poly IC (which mimics a GC dinucleotide repeat). […] We observed a marked induction of the pattern recognition receptors MDA5 and PKR that are cytoplasmic receptors for dsRNA (FIG. 3G) and TBK1 phosphorylation (FIG. 4A). In addition, downstream signaling events, i.e., MAVS reduction and IRF3 translocation to the nucleus for the MDA5 pathway, and phosphorylation of p38 and HSP27 for the PKR pathway, indicate that that neurons are capable of mounting this innate immune response intrinsically. […]
# IRF3 phosphorylation = IRF3 phosphorylation in poly-IC transfected ReNcell VM neurons; assay type: cell-based, human; conditions: poly-IC transfected ReNcell VM neurons treated with inhibitor
# Text: To determine if cytoplasmic dsRNA is sufficient to mediate neurodegeneration in human neurons, we transfected neuronal differentiated ReNcell VM cells 27, 28, a human neural cell line derived from ventral mesencephalon, with escalating doses of poly IC (which mimics a GC dinucleotide repeat). […] We observed a marked induction of the pattern recognition receptors MDA5 and PKR that are cytoplasmic receptors for dsRNA (FIG. 3G) and TBK1 phosphorylation (FIG. 4A). In addition, downstream signaling events, i.e., MAVS reduction and IRF3 translocation to the nucleus for the MDA5 pathway, and phosphorylation of p38 and HSP27 for the PKR pathway, indicate that that neurons are capable of mounting this innate immune response intrinsically.
# Many mutations in the TBK1 coding region are linked to ALS and FTD in an autosomal dominant manner. Expression of these mutant isoforms have been difficult to detect at the RNA and protein levels, giving rise to the hypothesis that haploinsufficiency of TBK1 drives neurodegeneration. Inhibition of TBK1 kinase activity challenge the hypothesis that LOF mutations cause the pathogenesis. TBK1 is activated by polyubiquitination and regulated by proteins binding to its CCH domain, including optineurin which binds TBK1, is mutated in some familial forms of ALS that abrogates inhibition of IRF3 4.
Compound,rescue of PolyIC (dsRNA)-induced neurodegeneration / neuronal death [1],other results
CC1(C)C(=O)C=C[C@]2(C)[C@H]3CC[C@@]4(C)[C@H](c5ccoc5)OC(=O)[C@H]5O[C@]54[C@]3(C)C=C[C@@H]12 [7DG],did not show rescue of the neuronal death phenotype,–
"O=C(Nc1ccc(-c2ccnc(Nc3ccc(N4CCOCC4)cc3)n2)cc1)[C@@H]1CCCN1 [XL019, (S)-N-(4-(2-((4-morpholinophenyl)amino)pyrimidin-4-yl)phenyl)pyrrolidine-2-carboxamide]",blocked neurodegeneration in dose dependent manner; also recorded: rescued PolyIC induced neurodegeneration,–
"CC(C)c1ccc2oc3nc(N)c(C(=O)O)cc3c(=O)c2c1 [NK-10, amlexanox]",rescued neurodegeneration; also recorded: dose-dependent rescue of dsRNA-mediated neurodegeneration,rescue of PolyIC (dsRNA)-induced neurodegeneration / neuronal death ([1]; listed as Amlexanox): rescued PolyIC induced neurodegeneration
"C1=C/COCc2cc(ccc2OCCN2CCCC2)Nc2nccc(n2)-c2cccc(c2)COC/1 [Pacritinib-1, 11-(2-pyrrolidin-1-yl-ethoxy)-14,19-dioxa-5,7,26-triaza-tetracyclo[19.3.1.1(2,6).1(8,12)]heptacosa-1(25),2(26),3,5,8,10,12(27),16,21,23-decaene]",blocked neurodegeneration in dose dependent manner; also recorded: rescued PolyIC induced neurodegeneration,–
"N#CCNC(=O)c1ccc(-c2ccnc(Nc3ccc(N4CCOCC4)cc3)n2)cc1 [CYT387, N-(Cyanomethyl)-4-[2-[[4-(4-morpholinyl)phenyl]amino]-4-pyrimidinyl]benzamide]",blocked neurodegeneration in dose dependent manner; also recorded: rescued PolyIC induced neurodegeneration,–
"CCS(=O)(=O)N1CC(CC#N)(n2cc(-c3ncnc4[nH]ccc34)cn2)C1 [Baricitinib, 2-(3-(4-(7H-pyrrolo[2,3-d]pyrimidin-4-yl)-1H-pyrazol-1-yl)-1-(ethylsulfonyl)azetidin-3-yl)acetonitrile]",blocked neurodegeneration in dose dependent manner; also recorded: rescued PolyIC induced neurodegeneration,–
"Cl.O=C(NN1CCC(N2CCCC2)CC1)c1ccc(Nc2nccc(-c3cc4ccccc4s3)n2)cc1 [IKK16, N-(4-Pyrrolidin-1-yl-piperidin-1-yl)-[4-(4-benzo[b]thiophen-2-yl-pyrimidin-2-ylamino)phenyl]carboxamide hydrochloride]",–,rescue of PolyIC (dsRNA)-induced neurodegeneration / neuronal death ([1]; hydrochloride): reversed poly-IC-mediated neurodegeneration; also recorded: rescued PolyIC induced neurodegeneration; IRF3 phosphorylation (IRF3 phosphorylation): reduced IRF3 phosphorylation
"NC(=O)Nc1sc(-c2ccc(F)cc2)cc1C(N)=O [NK-7, 2-[(Aminocarbonyl)amino]-5-(4-fluorophenyl)-3-thiophenecarboxamide]",dose-dependent rescue of dsRNA-mediated neurodegeneration,rescue of PolyIC (dsRNA)-induced neurodegeneration / neuronal death ([1]; listed as TPCA1): reversed poly-IC-mediated neurodegeneration; rescue of PolyIC (dsRNA)-induced neurodegeneration / neuronal death ([1]; listed as TPCA-1): rescued PolyIC induced neurodegeneration; IRF3 phosphorylation (IRF3 phosphorylation): reduced IRF3 phosphorylation
"C[C@@H]1CCN(C(=O)CC#N)C[C@@H]1N(C)c1ncnc2[nH]ccc12 [Tofacitinib, 3-((3R,4R)-4-methyl-3-(methyl(7H-pyrrolo [2,3-d]pyrimidin-4-yl)amino)piperidin-1-yl)-3-oxopropanenitrile]",blocked neurodegeneration in dose dependent manner; also recorded: rescued PolyIC induced neurodegeneration,–
"Cc1cc(Nc2nc(N[C@@H](C)c3ncc(F)cn3)ncc2Cl)n[nH]1 [AZD1480, 5-Chloro-N2-[(1S)-1-(5-fluoro-2-pyrimidinyl)ethyl]-N4-(5-methyl-1H-pyrazol-3-yl)-2,4-pyrimidinediamine]",rescued PolyIC induced neurodegeneration,–
"Cc1cnc(Nc2ccc(OCCN3CCCC3)cc2)nc1Nc1cccc(S(=O)(=O)NC(C)(C)C)c1 [TG101348, 2.N-tert-butyl-3-(5-methyl-2-(4-(2-(pyrrolidin-1-yl)ethoxy)phenylamino)pyrimidin-4-ylamino)benzenesulfonamide]",blocked neurodegeneration in dose dependent manner; also recorded: rescued PolyIC induced neurodegeneration,–
CNC(=O)c1ccc(C)c(-n2c(C)cc(OCc3ccc(F)cc3F)c(Br)c2=O)c1 [PH 797804],did not show rescue of the neuronal death phenotype,–
PolyIC,–,viability of ReNVM neurons transfected with PolyIC [1]: dose-dependent loss in cell viability; viability of ReNVM neurons transfected with PolyIC ([1]; listed as poly IC): dose-dependent reduction in their viability
O=C(NCCCNc1nc(Nc2cccc(NC(=O)N3CCCC3)c2)ncc1I)c1cccs1 [NK-6],dose-dependent rescue of dsRNA-mediated neurodegeneration,rescue of PolyIC (dsRNA)-induced neurodegeneration / neuronal death ([1]; listed as BX795): rescues poly-IC-mediated neurodegeneration in a dose dependent manner; also recorded: rescued PolyIC induced neurodegeneration
O=C1Nc2ccc3ncsc3c2/C1=C/c1cnc[nH]1 [C16],did not show rescue of the neuronal death phenotype,–
"O=C(Nc1nc2cccc(-c3ccc(CN4CCS(=O)(=O)CC4)cc3)n2n1)C1CC1 [Filgotinib, N-[5-[4-[(1,1-Dioxido-4-thiomorpholinyl)methyl]phenyl][1,2,4]triazolo[1,5-a]pyridin-2-yl]cyclopropanecarboxamide]",blocked neurodegeneration in dose dependent manner; also recorded: rescued PolyIC induced neurodegeneration,–
